Results reported in ChEMBL document CHEMBL5506036, “Exploring the Structural Attributes of Yoda1 for the Development of New-Generation Piezo1 Agonist Yaddle1 as a Vaccine Adjuvant Targeting Optimal T Cell Activation” (J Med Chem, 2024).
Converted amounts (≈) assume the structure as drawn. The source made the active and inactive calls. No cut-off for these calls is given here.

How the values were obtained:
[1] = Kinetic aqueous solubility of compound in PBS at pH 7.4 measured after 24 hrs by HPLC-UV analysis; format: physicochemical; conditions: read-out: Kinetic_solubility
[2] = target: T1, Piezo-type mechanosensitive ion channel component 1 (Homo sapiens, UniProt Q92508); assay: Agonist activity at human PIEZO1 overexpressing HEK293-A cells co-expressing mCherry-piezo1 assessed as fold change in calcium influx at 15 uM by fluo-3 based real-time flow cytometric analysis; format: cell-based
T1 sequence (Q92508 whole entry): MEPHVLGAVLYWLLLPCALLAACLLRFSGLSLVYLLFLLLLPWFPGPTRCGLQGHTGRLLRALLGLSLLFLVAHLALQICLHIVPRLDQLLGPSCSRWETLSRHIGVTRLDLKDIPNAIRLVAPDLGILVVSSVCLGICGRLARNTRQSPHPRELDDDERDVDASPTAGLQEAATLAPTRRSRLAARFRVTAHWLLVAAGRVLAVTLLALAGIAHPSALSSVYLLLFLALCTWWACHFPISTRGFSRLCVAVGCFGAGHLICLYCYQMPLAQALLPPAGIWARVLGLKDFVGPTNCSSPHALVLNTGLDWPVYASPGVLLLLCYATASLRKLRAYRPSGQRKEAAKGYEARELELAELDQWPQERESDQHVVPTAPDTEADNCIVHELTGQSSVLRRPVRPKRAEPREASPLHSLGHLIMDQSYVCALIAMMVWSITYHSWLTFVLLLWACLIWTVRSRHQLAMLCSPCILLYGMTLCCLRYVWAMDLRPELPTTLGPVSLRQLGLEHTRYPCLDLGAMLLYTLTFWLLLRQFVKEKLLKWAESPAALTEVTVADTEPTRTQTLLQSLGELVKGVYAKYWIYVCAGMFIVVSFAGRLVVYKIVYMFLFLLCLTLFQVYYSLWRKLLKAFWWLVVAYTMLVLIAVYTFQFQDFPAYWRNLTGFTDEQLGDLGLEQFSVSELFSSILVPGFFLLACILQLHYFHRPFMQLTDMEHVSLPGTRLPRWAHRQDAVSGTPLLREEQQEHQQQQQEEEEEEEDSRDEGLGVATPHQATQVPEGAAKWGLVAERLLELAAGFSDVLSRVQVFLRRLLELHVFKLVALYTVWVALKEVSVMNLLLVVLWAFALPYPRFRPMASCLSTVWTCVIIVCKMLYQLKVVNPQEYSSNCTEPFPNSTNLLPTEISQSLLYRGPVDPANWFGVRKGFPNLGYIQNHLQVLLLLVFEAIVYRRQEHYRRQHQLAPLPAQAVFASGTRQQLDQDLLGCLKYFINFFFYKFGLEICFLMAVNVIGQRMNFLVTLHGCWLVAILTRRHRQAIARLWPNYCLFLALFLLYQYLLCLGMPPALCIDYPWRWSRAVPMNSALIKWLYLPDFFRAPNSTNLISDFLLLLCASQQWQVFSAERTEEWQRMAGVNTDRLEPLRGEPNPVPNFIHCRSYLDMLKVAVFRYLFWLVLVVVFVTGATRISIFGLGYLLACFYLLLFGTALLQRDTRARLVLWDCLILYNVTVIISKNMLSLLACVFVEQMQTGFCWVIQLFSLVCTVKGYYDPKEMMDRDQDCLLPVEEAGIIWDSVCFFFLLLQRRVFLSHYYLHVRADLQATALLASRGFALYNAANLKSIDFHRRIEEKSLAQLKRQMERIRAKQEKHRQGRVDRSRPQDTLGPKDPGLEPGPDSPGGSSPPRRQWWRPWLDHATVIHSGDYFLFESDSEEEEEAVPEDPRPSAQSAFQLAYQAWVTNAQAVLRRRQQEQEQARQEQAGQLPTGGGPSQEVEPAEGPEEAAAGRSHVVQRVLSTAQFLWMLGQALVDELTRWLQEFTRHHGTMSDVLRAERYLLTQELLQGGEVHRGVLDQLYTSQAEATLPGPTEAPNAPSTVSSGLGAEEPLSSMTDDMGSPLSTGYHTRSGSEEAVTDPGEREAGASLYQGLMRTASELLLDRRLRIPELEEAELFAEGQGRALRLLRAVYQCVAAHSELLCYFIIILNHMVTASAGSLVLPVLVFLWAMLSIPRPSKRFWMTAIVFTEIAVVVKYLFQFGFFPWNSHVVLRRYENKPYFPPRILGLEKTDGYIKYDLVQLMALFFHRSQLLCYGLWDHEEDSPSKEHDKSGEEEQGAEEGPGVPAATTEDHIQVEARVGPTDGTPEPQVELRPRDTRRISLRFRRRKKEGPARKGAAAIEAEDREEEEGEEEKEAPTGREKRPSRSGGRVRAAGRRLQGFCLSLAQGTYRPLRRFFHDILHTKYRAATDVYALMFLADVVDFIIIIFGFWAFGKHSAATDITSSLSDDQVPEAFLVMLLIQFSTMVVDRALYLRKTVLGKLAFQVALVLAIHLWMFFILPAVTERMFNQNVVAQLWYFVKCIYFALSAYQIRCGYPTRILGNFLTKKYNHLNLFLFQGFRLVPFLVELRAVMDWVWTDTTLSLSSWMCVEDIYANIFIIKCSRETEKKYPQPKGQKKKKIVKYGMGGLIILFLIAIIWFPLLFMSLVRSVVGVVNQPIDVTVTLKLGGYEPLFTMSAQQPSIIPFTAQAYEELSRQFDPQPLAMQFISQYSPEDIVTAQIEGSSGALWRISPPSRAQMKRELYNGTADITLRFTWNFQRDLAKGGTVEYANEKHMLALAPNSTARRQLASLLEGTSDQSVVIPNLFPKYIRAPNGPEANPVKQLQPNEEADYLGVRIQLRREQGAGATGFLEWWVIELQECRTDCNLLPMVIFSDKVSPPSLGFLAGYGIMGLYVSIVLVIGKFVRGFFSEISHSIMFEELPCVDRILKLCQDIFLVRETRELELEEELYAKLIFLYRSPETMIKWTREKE

[3] = target: T1, Piezo-type mechanosensitive ion channel component 1; assay: Agonist activity at human PIEZO1 overexpressing HEK293-A cells co-expressing mCherry-piezo1 assessed as fold change in calcium influx at 20 uM by fluo-3 based real-time flow cytometric analysis; format: cell-based
[4] = target: T1, Piezo-type mechanosensitive ion channel component 1; assay: Agonist activity at human PIEZO1 overexpressing HEK293-A cells co-expressing mCherry-piezo1 assessed as fold change in calcium influx at 25 uM by fluo-3 based real-time flow cytometric analysis; format: cell-based
[5] = target: T1, Piezo-type mechanosensitive ion channel component 1; assay: Agonist activity at human PIEZO1 overexpressing HEK293-A cells co-expressing mCherry-piezo1 assessed as fold change in calcium influx at 0.1 uM by fluo-3 based real-time flow cytometric analysis; format: cell-based
[6] = target: T1, Piezo-type mechanosensitive ion channel component 1; assay: Agonist activity at human PIEZO1 overexpressing HEK293-A cells co-expressing mCherry-piezo1 assessed as fold change in calcium influx at 0.5 uM by fluo-3 based real-time flow cytometric analysis; format: cell-based
[7] = target: T1, Piezo-type mechanosensitive ion channel component 1; assay: Agonist activity at human PIEZO1 overexpressing HEK293-A cells co-expressing mCherry-piezo1 assessed as fold change in calcium influx at 1 uM by fluo-3 based real-time flow cytometric analysis; format: cell-based
[8] = target: T1, Piezo-type mechanosensitive ion channel component 1; assay: Agonist activity at human PIEZO1 overexpressing HEK293-A cells co-expressing mCherry-piezo1 assessed as fold change in calcium influx at 5 uM by fluo-3 based real-time flow cytometric analysis; format: cell-based
[9] = target: T1, Piezo-type mechanosensitive ion channel component 1; assay: Agonist activity at human PIEZO1 overexpressing HEK293-A cells co-expressing mCherry-piezo1 assessed as fold change in calcium influx at 10 uM by fluo-3 based real-time flow cytometric analysis; format: cell-based
[10] = target: T1, Piezo-type mechanosensitive ion channel component 1; assay: Agonist activity at human PIEZO1 overexpressing HEK293-A cells co-expressing mCherry-piezo1 assessed as induction of calcium influx by fluo-3 based real-time flow cytometric analysis; format: cell-based
[11] = target: T1, Piezo-type mechanosensitive ion channel component 1; assay: Agonist activity at human PIEZO1 overexpressing HEK293-A cells co-expressing mCherry-piezo1 assessed as induction of calcium influx by measuring maximum efficacy in fold change by fluo-3 based real-time flow cytometric analysis; format: cell-based; conditions: filed as agonist
[12] = target: T1, Piezo-type mechanosensitive ion channel component 1; assay: Agonist activity at PIEZO1 in human CD4+ T cell assessed as fold increase in intracellular calcium influx measured for 30 mins by flow cytometry analysis; format: cell-based
[13] = Cytotoxicity against human PBMC cells assessed as decrease in cell viability at 0.1 to 5 uM incubated for 6 hrs by MTT assay; format: toxicity, cell-based; conditions: dose 0.1-5 µM
[14] = Cytotoxicity against human PBMC cells assessed as decrease in cell viability at 20 uM incubated for 24 hrs by MTT assay; format: toxicity, cell-based
[15] = target: T1, Piezo-type mechanosensitive ion channel component 1; assay: Agonist activity at PIEZO1 in human CD4+ T cell assessed as intracellular calcium influx measured for 30 mins by flow cytometry analysis; format: cell-based

| Structure (SMILES) | solubility kinetic at 24 h [1] [µM] | fold change (FC) [2] | fold change (FC) [3] | Activity [4] | fold change (FC) [5] | fold change (FC) [6] | fold change (FC) [7] | fold change (FC) [8] | fold change (FC) [9] | EC50 [10] [nM] | fold change (FC) [11] | fold change (FC) [12] | Activity [13] | Activity [14] | Activity [15] |
| --- | --- | --- | --- | --- | --- | --- | --- | --- | --- | --- | --- | --- | --- | --- | --- |
| CC/C(=C(/CC)c1ccc(O)cc1)c1ccc(O)cc1 [DIETHYLSTILBESTROL] | 14.4 (≈ 3.85 µg/mL) | – | – | – | – | – | – | – | – | – | – | – | – | – | – |
| Clc1cccc(Cl)c1CSc1nnc(-c2cnccn2)[nH]1 | – | < 1.2 | < 1.2 | inactive | – | – | – | – | – | – | – | – | – | – | – |
| Brc1cccc(Br)c1CSc1nnc(-c2cnccn2)o1 | – | < 1.2 | > 1.2 | – | < 1.2 | > 1.2 | > 1.2 | > 1.2 | > 1.2 | 2100 | 2.5 | > 2 | – | – | – |
| Brc1ccc(Br)c(CSc2nnc(-c3cnccn3)o2)c1 | – | > 1.2 | > 1.2 | – | < 1.2 | < 1.2 | < 1.2 | < 1.2 | > 1.2 | 9900 | 1.9 | – | – | – | – |
| FC(F)(F)c1ccc(Br)c(CSc2nnc(-c3cnccn3)o2)c1 | – | > 1.2 | > 1.2 | – | < 1.2 | > 1.2 | > 1.2 | > 1.2 | > 1.2 | 600 | 2.3 | – | – | – | – |
| Clc1cccc(CSc2nnc(-c3cnccn3)o2)c1Cl | – | – | < 1.2 | – | < 1.2 | – | – | – | – | – | – | – | – | – | – |
| Ic1ccccc1CSc1nnc(-c2cnccn2)o1 | – | < 1.2 | < 1.2 | – | – | – | – | – | – | – | – | – | – | – | – |
| Clc1ccccc1CSc1nnc(-c2ccc[nH]2)o1 | – | < 1.2 | < 1.2 | – | < 1.2 | < 1.2 | < 1.2 | < 1.2 | < 1.2 | – | – | – | – | – | – |
| Clc1ccccc1CNc1nnc(-c2cnccn2)o1 | – | < 1.2 | < 1.2 | – | < 1.2 | < 1.2 | < 1.2 | < 1.2 | < 1.2 | – | – | – | – | – | – |
| N#Cc1ccccc1CSc1nnc(-c2cnccn2)o1 | – | < 1.2 | < 1.2 | – | – | – | – | – | – | – | – | – | – | – | – |
| Clc1cccc(Cl)c1CSc1nnc(-c2cnccn2)o1 | – | > 1.2 | > 1.2 | – | < 1.2 | < 1.2 | > 1.2 | > 1.2 | > 1.2 | 1340 | 2.07 | > 2 | – | – | – |
| O=c1oc(-c2cnccn2)nn1Cc1c(Cl)cccc1Cl | – | < 1.2 | < 1.2 | – | < 1.2 | < 1.2 | < 1.2 | < 1.2 | < 1.2 | – | – | – | – | – | – |
| Fc1cccc(Cl)c1CSc1nnc(-c2cnccn2)o1 | – | < 1.2 | > 1.2 | – | < 1.2 | < 1.2 | < 1.2 | > 1.2 | > 1.2 | 1090 | 1.55 | – | – | – | – |
| Clc1ccccc1CSc1nnc(-c2cnccn2)o1 | – | < 1.2 | < 1.2 | – | – | – | – | – | – | – | – | – | – | – | – |
| Clc1ccc(Cl)c(CSc2nnc(-c3cnccn3)o2)c1 | – | > 1.2 | > 1.2 | – | < 1.2 | < 1.2 | < 1.2 | < 1.2 | > 1.2 | 570 | 1.25 | – | – | – | – |
| FC(F)(F)c1ccccc1CSc1nnc(-c2cnccn2)o1 | – | > 1.2 | > 1.2 | – | < 1.2 | < 1.2 | < 1.2 | < 1.2 | > 1.2 | 2060 | 1.35 | – | Non-Toxic | Non-Toxic | inactive |
| Brc1ccccc1CSc1nnc(-c2cnccn2)o1 | – | < 1.2 | < 1.2 | – | – | – | – | – | – | – | – | – | – | – | – |
| Clc1ccc(CSc2nnc(-c3cnccn3)o2)c(Cl)c1 | – | – | < 1.2 | – | < 1.2 | – | – | – | – | – | – | – | – | – | – |
